# Assay results as given in PMC12412453 (Toxicology, 2021).
# Values joined by “and” are separate entries in the source; they are usually repeats but may differ in a detail not shown here. Identical values can stand only once.
# What was measured:
# Vero cells = conditions: ref Gomes et al., 2021; cited from earlier work
# [1] = test system: bone marrow of rhesus macaques; conditions: ref Rao et al., 2005; cited from earlier work
# [2] = Cytotoxicity by ATP assay; conditions: rhesus macaque
# [3] = test system: primary macaque hepatocytes (PMHs); experiment: Cytotoxicity by ATP assay; conditions: for Max. con. / Cytotoxicity: PMH, 24-h treatment; for Max. con.: maximum concentration
# [4] = test system: primary human hepatocytes (PHHs); conditions: ref Seo et al., 2020, cited from earlier work; for BMD50: PHH CometChip data reanalyzed using PROAST; for BMDL50–BMDU50 / Potency ranking / LEC (lowest effective concentration) / BMDU/BMDL / DNA damage (ratio of %DNA in tail at highest concentration to vehicle control): PHH; for BMDL50–BMDU50: 90 % confidence interval of BMD50; for Potency ranking: rank by BMD50 among nine positive compounds; for LEC (lowest effective concentration): lowest concentration positive in comet assay
# [5] = test system: primary macaque hepatocytes (PMHs); experiment: CometChip assay; conditions: for BMDU/BMDL / DNA damage (ratio of %DNA in tail at highest concentration to vehicle control) / LEC (lowest effective concentration) / BMDL50–BMDU50 / Potency ranking: PMH; for BMD50: PMH CometChip data, PROAST exponential model; for DNA damage (ratio of %DNA in tail at highest concentration to vehicle control) / LEC (lowest effective concentration): 24-h treatment; for LEC (lowest effective concentration): lowest concentration positive in comet assay; for BMDL50–BMDU50: 90 % confidence interval of BMD50; for Potency ranking: rank by BMD50 among nine positive compounds
# [6] = reported findings; ref References column of Table 1; cited from earlier work
# [7] = test system: primary human hepatocytes (PHHs); conditions: ref Seo et al., 2020, cited from earlier work; for Cytotoxicity / Max. con.: PHH; for Cytotoxicity: ATP assay, 24-h treatment; for Max. con.: maximum concentration
# [8] = test system: peripheral blood and bone marrow of rhesus macaques; conditions: single and repeated administration, ref Hotchkiss et al., 2008; cited from earlier work
# [9] = reported findings; ref References column of Table 1; cited from earlier work; remark: listed apart in the source
# [10] = test system: peripheral blood lymphocytes of male rhesus macaques; conditions: single dose of 50 mg/kg, ref Dobrovolsky et al., 2009; cited from earlier work
SMILES,Max. con. [3],Cytotoxicity ([3]; ATP assay),BMD50 [4],BMDL50–BMDU50 [4],Potency ranking [4],LEC (lowest effective concentration) [4],BMDU/BMDL [4],DNA damage (ratio of %DNA in tail at highest concentration to vehicle control) [4],BMDU/BMDL [5],BMD50 [5],DNA damage (ratio of %DNA in tail at highest concentration to vehicle control) [5],LEC (lowest effective concentration) [5],BMDL50–BMDU50 [5],Potency ranking [5],Genotoxicity assay findings in vivo [6],Cytotoxicity [7],Max. con. [7],other results
Cc1c(N(C)CS(=O)(=O)[O-])c(=O)n(-c2ccccc2)n1C.[Na+] [dipyrone],,,,,,,,,,,,,,,,,,DNA damage by comet assay (Vero cells): significant increases in DNA damage
S=P(N1CC1)(N1CC1)N1CC1 [thiotepa],,,,,,,,,,,,,,,,,,chromosomal aberrations in bone marrow [1]: induced chromosomal aberrations
"O=P1(N(CCCl)CCCl)NCCCO1 (stereo not drawn) [CPA, cyclophosphamide]",5000 µM,+++ (> 50 %),248.2 µM,135 to 437 µM,8,1768 µM,3.2,++ (2 < ratio ≤ 5),2.3,253 µM and 253.8 µM,+++ (the ratio > 5),937.5 µM,165 to 372 µM,7,"(+) for CA, MN, Pig-a, TG, and comet",+ (11–30 %),"10,000 μM","viability at 24 h, 2500 µM [2]: 50%; fold increase in % tail DNA (DNA damage) compared to the vehicle control ([5]; PMHs, highest acceptable concentration, range given for four compounds together): 6.1–8.1 fold; LEC fold higher in PHHs than in PMHs ([5]; comet assay LEC, PHH vs PMH): 2 fold; cell viability ([7]; PHHs, 10,000 μM): 88%; micronucleated reticulocytes [8]: significantly increased"
"CCN(N=O)C(N)=O [ENU, N-ethyl-N-nitrosourea]",3200 µM,+ (11–30 %),47.3 µM,25.3 to 83.5 µM,7,800 µM,3.3,+++ (the ratio > 5),2.3,683 µM,+++ (the ratio > 5),2400 µM,439 to 1030 µM,8,"(+) for CA, MN, Pig-a, TG, comet",− (cytotoxicity of 0–10 %),3200 µM,"Genotoxicity assay findings in vitro [9]: (+) for MLA, CA, MN, Pig-a, Hprt, comet, and UDS; cytotoxic effects (in words) ([3]; PMHs, ATP assay, 24-h exposure): cytotoxic effects over the same range of concentrations, but only in PMHs; BMD50 fold higher in PMHs than in PHHs (lower in PHHs) ([5]; CometChip BMD50, PMH vs PHH): 8–22 fold; Pig-a and Hprt mutant frequencies [10]: significantly increased"
